Reference: patent publication US20260284189A1, “TREATMENT OF NON-SMALL CELL LUNG CANCER” (ASTRAZENECA AB, priority 2023, published 2026)

What was measured:
[1] = system: resectable non-small cell lung cancer (R-NSCLC); assay: AEGEAN phase III: pathological response (pCR, MPR) by central pathology review; format: in vivo, human; settings: final analysis
Description: As used herein, the terms “pathological complete response” or “pathological CR” or “pCR” refer to the proportion of patients who have 0% residual viable tumor cells within all resected tissue (including primary lung lesion and lymph nodes) following neoadjuvant treatment as assessed by central pathology laboratory. […] Central pathology assessment of pCR will be performed according to the recommended methods and definitions described by IASLC 2020 (Travis et al. “IASLC Multidisciplinary Recommendations for Pathologic Assessment of Lung Cancer Resection Specimens After Neoadjuvant Therapy.” J Thorac Oncol. 2020 May; 15(5):709-740. doi:10.1016/j.jtho.2020.01.005). The analysis can be performed using a Cochran-Mantel-Haenszel (CMH) test, stratified by disease stage (Stage II versus Stage III) and PD-L1 expression status (<1% versus ≥1%). The effect of treatment will be estimated by the difference in proportions between treatment groups, together with their corresponding CI and p-value.
As used herein, the terms “major pathological response” and “mPR” refer to the proportion of patients with 10% or less residual viable tumor tissue in lung primary tumor after neoadjuvant treatment at the time of resection as assessed per central pathology laboratory. […]
Primary tumors and sampled lymph nodes were assessed for pathological response to neoadjuvant treatment by central pathology review using recommendations from the IASLC. […] 2020 May; 15(5):709-740. doi: 10.1016/j.jtho.2020.01.005; Hellmann et al. “Pathological response after neoadjuvant chemotherapy in resectable non-small-cell lung cancers: proposal for the use of major pathological response as a surrogate endpoint.” Lancet Oncol 2014; 15(1):e42-50; Cottrell et al. “Pathologic features of response to neoadjuvant anti-PD-1 in resected non-small-cell lung carcinoma: a proposal for quantitative immune-related pathologic response criteria (irPRC).” Ann Oncol 2018; 29(8):1853-1860). […]
For pathological endpoints, response rates were compared between treatment arms using a stratified Cochran-Mantel-Haenszel test; the treatment effect was estimated by the differences in response rates, with their corresponding 95% confidence intervals (CIs) calculated by the stratified Miettinen and Nurminen method. EFS was compared between the treatment arms using a stratified log-rank test; the treatment effect was estimated by HRs and 95% CIs calculated with stratified Cox-proportional-hazards models. […] For pCR, the differences in response rates were calculated for each subgroup, with corresponding 95% CIs estimated using an unstratified Miettinen and Nurminen method; for EFS, HRs and 95% CIs were calculated for each subgroup using a Cox-proportional-hazards model with treatment as the only covariate.

[2] = system: resectable non-small cell lung cancer (R-NSCLC); assay: AEGEAN phase III: objective response prior to surgery, BICR (RECIST v1.1); format: in vivo, human; settings: mITT N = 366
Protocol: Tumors were evaluated per RECIST v1.1 using imaging collected at the following timepoints: baseline (≤28 days before randomization); after completing neoadjuvant treatment and before surgery; 5 weeks (±2 weeks) after surgery and before starting adjuvant treatment; every 12 weeks (±1 week) until Week 48 after surgery; every 24 weeks (±2 weeks) until Week 192 (i.e., ~4 years post-surgery); and every 48 weeks (±2 weeks) thereafter until local or distant recurrence, consent withdrawal, or death.
Efficacy assessments were performed and determined by pathology review or a BICR using RECIST 1.1 assessment, as applicable, including EFS (mITT and PD-L1 TC≥1% analysis set), pCR (mITT and PD-L1 TC≥1% analysis set), mPR (mITT and PD-L1 TC≥1% analysis set), DFS (modified resected set and PD-L1 TC≥1% resected set), and OS (mITT and PD-L1 TC≥1% analysis set). The EFS event of PD that precludes surgery or PD discovered during surgery that prevents completion of surgery will be determined by the Investigator.

With “Durvalumab: antibody that selectively binds PD-L1 and blocks binding of PD-L1 to PD-1 and CD80; arm given with platinum-based chemotherapy before surgery” the “MPR, proportion of patients” value ([1]; mITT N=366, central review) was 33.3%, the “pCR, proportion of patients” value ([1]; mITT N=366, central review) was 17.2% and the “MPR difference in proportions, durvalumab arm versus placebo arm” value ([1]; mITT N=740) was 21.0. The “pCR difference in proportions, durvalumab arm versus placebo arm” value ([1]; mITT N=740) was 13.0%, the “Complete response: number of patients” value [2] was 4 and the “Complete response: patients” value [2] was “(1.1) %”. The “Not evaluable (objective response): number of patients” value [2] was 25, the “Not evaluable (objective response): patients” value [2] was “(6.8) %” and the Objective response rate [2] was “(56.3) %”. The “Objective response rate: number of patients” value [2] was 206, the “Partial response: number of patients” value [2] was 202 and the “Partial response: patients” value [2] was “(55.2) %”. For the same substance, the “Progression: number of patients” value [2] was 11, the “Progression: patients” value [2] was “(3.0) %” and the “Stable disease: number of patients” value [2] was 124. The “Stable disease: patients” value [2] was “(33.9) %”.
